The values below come from paper PMC3001897, “High-Throughput Chemical Screen Identifies a Novel Potent Modulator of Cellular Circadian Rhythms and Reveals CKIα as a Clock Regulatory Kinase” (PLoS Biology, 2010).

A word on the EC50: it is the concentration needed to bring the measured effect to its halfway point. A low value points to an effect from little substance. The IC50 is the point on the concentration scale where inhibition reaches its midpoint. Low readings indicate greater potency in that assay, high ones weaker potency in that assay.

Experiment [1] concerns adult tail fibroblasts. As to the kind of experiment: Circadian period in adult tail fibroblasts from mPer2Luc knockin mice. The experiment is classed as cell-based, mouse. As for the experimental part: (§1) Luminescence rhythms of adult tail fibroblasts and embryonic fibroblasts from mPer2^Luc knockin mice were analyzed similarly to U2OS cells, except that 1,800 cells were plated per well. Because of the low luminescence intensity of the fibroblasts, the higher sensitivity ViewLux imager was used for rhythm recording.

In experiment [2] the test system is lung explants. Kind of experiment: Circadian period in lung explants from mPer2Luc knockin mice. In kind it is cell-based, mouse. The conditions noted are these: 0 to 9 µM. How it is done:
(§2) Explants of lung and SCN were dissected from mPer2^Luc knockin mice and cultured in explant medium as described previously. The medium was changed every week with increasing concentration of longdaysin each time (from 0 to 9 µM, final 0.7% DMSO). The luminescence was recorded every 10 min with LumiCycle luminometer (Actimetrics), and the period parameter was obtained by using LumiCycle Analysis software (Actimetrics).

Experiment [3] deals with T1, CKIδ (Homo sapiens, UniProt P48730). As to the kind of experiment: Cell-based PER1 degradation assay (PER1-LUC), CKIδ. As for the experimental part: HEK293T cells (6.0×10^4 cells) were reverse transfected on 96-well white solid-bottom plates by Lipofectamine 2000 with 40 ng each of expression vectors for C-terminally luciferase-fused PER1 (in p3XFLAG-CMV-14) and N-terminally HA-tagged kinase (in p3XFLAG-CMV-14). For luciferase (in p3XFLAG-CMV-14), 2 ng of expression vector with 38 ng of empty vector was used because of its efficient expression. After 48 h, the medium was supplemented with luciferin (final 1 mM) and HEPES-NaOH (pH 7.2; final 10 mM). After 1 h, cycloheximide (final 20 µg/ml) was added to the medium, and the plate was covered with optically clear film. The luminescence was recorded every 10 min by using the Tecan luminometer. Half-life was obtained by using Prism software (GraphPad Software).
T1 sequence (P48730 whole entry, species assumed, the tested form may be a part): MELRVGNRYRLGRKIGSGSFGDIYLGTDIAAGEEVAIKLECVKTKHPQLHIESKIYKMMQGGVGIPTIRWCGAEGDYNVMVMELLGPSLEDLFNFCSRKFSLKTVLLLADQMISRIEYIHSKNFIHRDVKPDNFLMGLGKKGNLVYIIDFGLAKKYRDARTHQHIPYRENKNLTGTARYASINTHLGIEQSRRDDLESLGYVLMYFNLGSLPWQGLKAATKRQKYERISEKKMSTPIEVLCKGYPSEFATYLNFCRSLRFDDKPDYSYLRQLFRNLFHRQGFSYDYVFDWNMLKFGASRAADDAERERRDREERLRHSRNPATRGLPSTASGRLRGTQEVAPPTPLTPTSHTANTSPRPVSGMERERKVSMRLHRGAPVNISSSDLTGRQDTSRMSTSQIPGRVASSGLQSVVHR

Experiment [4] relates to SCN explants. As to the kind of experiment: Circadian period in SCN explants from mPer2Luc knockin mice. In kind it is cell-based, mouse. The conditions noted are these: 0 to 9 µM. As for the experimental part:
as §2

Experiment [5] has as its target CKIα (Homo sapiens, UniProt P48729). As to the kind of experiment: In vitro kinase assay, CKIα. In kind it is biochemical. More on the design: purchased Invitrogen PV3850. The conditions noted are these: ATP 5 µM; from Figure 2E. As for the experimental part:
(§3) The CKIδ, CKIα, CDK7, and ERK2 kinase assays were performed on 384-well plates (10 µl volume). The reaction mixture was as follows: for CKIδ, 2 ng/µl CKIδ (Millipore, 14-520), 50 µM peptide substrate RKKKAEpSVASLTSQCSYSS corresponding to human PER2 Lys659-Ser674 [47], and CKI buffer (40 mM Tris, 10 mM MgCl2, 0.5 mM DTT, 0.1 mg/ml BSA, pH 7.5); for CKIα, 1 ng/µl CKIα (Invitrogen, PV3850), 50 µM CKI peptide substrate (Anaspec, 60547-1), and CKI buffer; for CDK7, 5 ng/µl CDK7 (Millipore, 14-476), 100 µM Cdk7/9 peptide substrate (Millipore, 12-526), and CKI buffer; for ERK2, 1.5 ng/µl ERK2 (Millipore, 14-550), 0.8 µg/µl MBP (Millipore, 13-104), and ERK buffer (50 mM Tris, 10 mM MgCl2, 0.5 mM DTT, 1 mM EGTA, pH 7.5). Five hundred nl of compound was added to the mixture (final 5% DMSO), and the reaction was started by adding ATP (final 5 µM). After incubation at 30°C for 3h, 10 µl of Kinase-Glo Luminescent Kinase Assay reagent (Promega) was added, and the luminescence was detected to determine remaining ATP amount. […] IC50 value was obtained by using Prism software (GraphPad Software).

The target in experiment [6] is T1, CKIδ. As to the kind of experiment: PER2-LUC degradation assay, CKIδ. The experiment is classed as cell-based. The conditions noted are these: HEK293T, 0 to 20 µM, 24 h.
In experiment [7] the test system is embryonic fibroblasts. As to the kind of experiment: Circadian period in embryonic fibroblasts from CKIδ deficient mPer2Luc knockin mice. The experiment is classed as cell-based, mouse. As for the experimental part:
as §1

The target in experiment [8] is T2, CDK7 (Homo sapiens, UniProt P50613).
T2 construct: purchased Millipore 14-476
T2 sequence (P50613 whole entry): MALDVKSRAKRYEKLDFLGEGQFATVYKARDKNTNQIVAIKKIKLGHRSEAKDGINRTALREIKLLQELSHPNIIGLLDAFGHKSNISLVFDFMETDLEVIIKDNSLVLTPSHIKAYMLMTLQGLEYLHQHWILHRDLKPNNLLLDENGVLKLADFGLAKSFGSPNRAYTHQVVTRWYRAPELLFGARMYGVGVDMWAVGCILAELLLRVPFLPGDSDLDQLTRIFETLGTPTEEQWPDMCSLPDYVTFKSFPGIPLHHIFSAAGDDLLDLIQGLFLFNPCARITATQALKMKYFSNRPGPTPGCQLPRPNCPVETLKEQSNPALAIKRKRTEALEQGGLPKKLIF
T2 sequence (P51946 whole entry partner): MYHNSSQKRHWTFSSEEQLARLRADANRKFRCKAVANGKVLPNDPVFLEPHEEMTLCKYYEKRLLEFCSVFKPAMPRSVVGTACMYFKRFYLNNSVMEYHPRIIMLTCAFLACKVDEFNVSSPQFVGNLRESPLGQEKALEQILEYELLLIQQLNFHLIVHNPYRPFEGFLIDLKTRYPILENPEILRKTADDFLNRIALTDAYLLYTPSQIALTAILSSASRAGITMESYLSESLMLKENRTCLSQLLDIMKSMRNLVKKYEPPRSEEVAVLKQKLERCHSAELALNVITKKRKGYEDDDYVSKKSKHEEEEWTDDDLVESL
T2 sequence (P51948 whole entry partner): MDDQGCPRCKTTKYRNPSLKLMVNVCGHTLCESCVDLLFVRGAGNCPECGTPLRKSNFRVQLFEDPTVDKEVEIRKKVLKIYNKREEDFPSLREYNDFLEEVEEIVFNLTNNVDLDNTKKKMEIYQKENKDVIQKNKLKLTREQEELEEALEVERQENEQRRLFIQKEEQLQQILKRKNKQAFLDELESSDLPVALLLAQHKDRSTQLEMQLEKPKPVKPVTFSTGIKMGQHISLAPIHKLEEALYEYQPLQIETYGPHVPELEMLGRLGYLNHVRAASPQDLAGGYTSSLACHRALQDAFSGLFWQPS
As to the kind of experiment: In vitro kinase assay, CDK7. The experiment is classed as biochemical. The conditions noted are these: ATP 5 µM; from Figure 2E. As for the experimental part: as §3

The subject of experiment [9] is Bmal1-dLuc U2OS cells. Kind of experiment: Time-course assay of endogenous PER1 abundance with parallel luminescence rhythms. The conditions noted are these: for Period of Bmal1-dLuc luminescence rhythm: control 0 µM 26 h; for Time of second trough of Bmal1-dLuc luminescence rhythm: control 0 µM 34 h; for Time of second peak of PER1 protein rhythm: control 0 µM 40 h. In kind it is cell-based, human. As for the experimental part: Bmal1-dLuc U2OS cells were plated onto 6-well-plates (2.0×10^5 cells/well). After 2 d, the medium was replaced with 2 ml explant medium containing 0, 3, or 9 µM longdaysin. The plate was covered with film and kept at 36°C. At indicated time points, the cells were collected with ice-cold PBS and stored at −80°C. Then the cell pellets were homogenized in SDS sample buffer and analyzed by Western blotting with anti-PER1 antibody (Cosmo Bio, KAL-KI044) or anti-α-tubulin antibody. In parallel, luminescence rhythms of the cells plated on 35 mm dishes were recorded with LumiCycle luminometer at 36°C.

Experiment [10] relates to CKIα- and CKIδ-dependent mobility-shift of PER1. As to the kind of experiment: PER1 electrophoretic mobility-shift (phosphorylation) in HEK293T cells. The experiment is classed as cell-based. The conditions noted are these: 10 or 20 µM, 24 h. How it is done:
HEK293T cells (1.25×10^6 cells) were reverse transfected on 6-well plates by Lipofectamine 2000 with 1 µg each of expression vectors for C-terminally 3XFlag-tagged clock protein (in p3XFLAG-CMV-14, Sigma) and N-terminally HA-tagged kinase (in p3XFLAG-CMV-14). For ERK2, 0.05 µg of expression vector with 0.95 µg of empty vector was used because of its efficient expression. After 24 h, the cells were collected with ice-cold PBS and suspended in 100 µl of incubation buffer [50 mM Tris, 50 mM NaCl, 2 mM EDTA, 10% glycerol, 1 mM DTT, Complete Protease Inhibitor Cocktail (Roche), Phosphatase Inhibitor Cocktail 1 and 2 (Sigma), pH 8.0]. The mixture was supplemented with NP-40 (final 1%) and incubated on ice for 15 min, followed by centrifugation (16,000×g) at 4°C for 10 min. […] The bound proteins were eluted with SDS sample buffer, separated by SDS-PAGE (4%–12% gradient gel), and analyzed by Western blotting with anti-Flag antibody (Sigma, F1804) or anti-HA antibody conjugated with HRP (Roche, 12013819001). For the analysis of PER1 electrophoretic mobility-shift, the cell extracts were separated by SDS-PAGE (3%–8% gradient gel, Invitrogen) and analyzed by Western blotting with anti-Flag antibody or anti-α-tubulin antibody (Santa Cruz Biotechnology, sc-32293). Protein concentration of each sample was measured by the Lowry method using DC protein assay (BioRad).

Sequence of CKIα (P48729 whole entry): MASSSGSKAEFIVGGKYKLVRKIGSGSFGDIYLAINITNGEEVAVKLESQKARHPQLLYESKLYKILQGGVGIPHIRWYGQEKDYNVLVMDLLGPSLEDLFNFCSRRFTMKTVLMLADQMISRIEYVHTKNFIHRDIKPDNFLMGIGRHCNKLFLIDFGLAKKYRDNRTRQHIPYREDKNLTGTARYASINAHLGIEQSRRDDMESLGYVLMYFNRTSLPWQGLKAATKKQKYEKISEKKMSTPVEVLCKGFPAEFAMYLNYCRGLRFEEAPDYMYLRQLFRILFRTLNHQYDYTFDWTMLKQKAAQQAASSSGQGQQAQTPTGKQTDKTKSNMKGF

With `CC(C)n1cnc2c(NCc3cccc(C(F)(F)F)c3)ncnc21` [Longdaysin, 9-isopropyl-N-(3-(trifluoromethyl)benzyl)-9H-purin-6-amine], the “Effect on circadian period” value in experiment [1] was “dose-dependent period lengthening”; in experiment [2], “dose-dependent period lengthening”; in experiment [4], “dose-dependent period lengthening”; in experiment [7] (CKIδ deficient (CKIδΔ2/Δ2) cells), “lengthened the period in a dose-dependent manner”; in experiment [7] (wild type (CKIδ+/+) cells), “lengthened the period in a dose-dependent manner”. In [3] (HEK293T cells, 24 h treatment, from Figure 4E), this compound had an EC50 of 9.7 µM. Besides, the “Effect on CKIδ-dependent degradation of PER1” value in experiment [3] (HEK293T, 0 to 20 µM, 24 h) is listed as “inhibited by longdaysin treatment in a dose-dependent manner”. The values for the IC50 in experiment [5] and in [8] were 5.6 µM and 29 µM, respectively. For the same compound, the “Effect on CKIδ-mediated PER2-LUC degradation” value in experiment [6] was “inhibited the CKIδ-mediated PER2-LUC degradation in a dose-dependent manner”. Besides, the entries for the “Period of Bmal1-dLuc luminescence rhythm” value in [9] (3 µM) and in experiment [9] (9 µM) were 32 h and 38 h, respectively. For the same compound, the “Time of second trough of Bmal1-dLuc luminescence rhythm” value in experiment [9] (3 µM) was 38 h; in experiment [9] (9 µM), 46 h. Moreover, the “Time of second peak of PER1 protein rhythm” value was 40 to 46 h in experiment [9] (3 µM) and 52 h in [9] (9 µM). The “Overall protein amount of endogenous PER1” value in experiment [9] (3 or 9 µM versus 0 µM control) is reported as “strongly up-regulated”. Besides, the “PER1 mRNA level” value in [9] (3 or 9 µM, RT-qPCR) was “without affecting its mRNA level”. Further, the “Effect on CKIα- and CKIδ-dependent mobility-shift of PER1” value in [10] was “reduced the CKIα- and CKIδ-dependent mobility-shift of PER1”.
